Where two headings read alike, the source gives them in different places.

Experiment [1] concerns the target T1, VCAM-1 binding to α4β7-negative Th memory cells (Homo sapiens, UniProt P05556+P13612).
T1 construct: endogenous in cells
The experiment in a line: VCAM-1 competition / receptor occupancy assay in human whole blood, α4β7-negative Th memory cells. It is filed as cell-based. On the procedure: Analyte Competition Assay in CD4+ Integrin α4+β7-Lo Memory T Cells
Receptor occupancy in primary cells was determined by measuring the amount of biotinylated human recombinant MAdCAM-1-FC or human recombinant VCAM-1-Fc bound to selected cell populations using flow cytometry. Human recombinant MAdCAM-1-FC or human recombinant VCAM-1-FC (R&D systems) were biotinylated using commercially available reagents and protocol (Pierce).
Whole blood was collected from human donors in sodium heparin tubes. A volume of 100 microL of blood was incubated with compound and 4 mM MnCL2 for 1 hour at room temperature. Cells were washed twice with 1 mL of 1X DPBS calcium magnesium free (CMF) (ThermoFisher Scientific) and resuspended in 100 microL of DPBS CMF.
Biotinylated human recombinant MAdCAM-1-Fc or VCAM-1-Fc were added at saturating concentration and incubated at room temperature for 1 hour. A volume of 2 mL of 1X BD FACS Lyse (BD Biosciences) was then added and the mixture was incubated for 8-12 minutes at room temperature in the dark to lyse red blood cells. Cells were washed with 1 mL stain buffer-FBS (BD Biosciences) and resuspended in 100 μl stain Buffer-FBS (BD Biosciences) containing 4 mM MnCl2. Biotinylated-rhMAdCAM-1 was applied at a saturating concentration of 1200 ng/mL to compete with test article binding and incubated at room temperature for 1 hour. Cells were then washed with 1 mL stain buffer-FBS and resuspended in […] stain buffer-FBS. The cells were incubated in the dark for 30 minutes at room temperature with 1 ul Streptavidin APC (Biolegend 0.2 mg/ml) and a panel of antibodies for the detection of memory T helper a4b7-positive cells subset. And amount of 5.0 ul each of the following antibodies were used; CD45 FITC (BioLegend 200 ug/ml), CD29 APC Cy7 (BioLegend 100 ug/ml), Integrin beta7 PE, (BioLegend concentration 50 μg/mL), CD49d V421 (BioLegend 50 μg/mL), CD3 V510 (BioLegend 30 μg/mL), CD4 PECy7 (BioLegend 100 μg/mL), CD45RO PerCP, BioLegend 200 μg/mL). The cells were then washed with stain-buffer-FBS and resuspended in 150 microL stain buffer-FBS for acquisition on the flow cytometer (BD FACSCanto™ flow cytometer and BDFACSDiva™ software). FACS data was acquire by electronic gating on the basis of forward versus side scatter, The cytometer was set to collect 20,000 events in each tube. Cell population were determined using the following markers, CD45+, CD3+, CD4+, CD45RO+, CD49d+, integrin b7, biotinylated ligands.
Compound receptor occupancy was defined as the decrease in the number of integrin β7+ or integrin β7-lo cells binding biotinylated rhMAdCAM-1 or rhVCAM-1, respectively.
(§1) Receptor occupancy was calculated with the following equation: 100−((% ligand-positive cells with compound/% ligand-positive cells DMSO)*100) In Vivo T Lymphocyte Trafficking Analysis in Mouse Model of Colitis

The test system of experiment [2] is α4β7+ T helper memory lymphocytes in mesenteric lymph nodes. Briefly: In vivo T lymphocyte trafficking analysis in DSS mouse model of colitis. As to conditions: DSS-treated mice. Here is the method:
as §1
Animal care: The animal care facility employed is accredited by the Canadian Council on Animal Care (CCAC). This study was approved by a certified Animal Care Committee and complied with CACC standards and regulations governing the use of animals for research. The animals were housed under standardized environmental conditions. A standard certified commercial rodent diet was provided ad libitum. Tap water was provided ad libitum at all times.
Dextran sulfate sodium (DSS) was administered to C57Bl/6 female mice for five days through addition to their drinking water at 3%. Body weight and disease activity index (“DAI”) were measured on Day 5 in order to distribute DSS-treated animals in uniform groups prior to dosing. DAI was scored based on the severity three specific symptoms associated with colitis: 1—blood in stool (negative hemoccult, positive hemoccult, blood traces in stool visible, rectal bleeding); 2—stool consistency (normal, soft but still formed, very soft, diarrhea); 3—body weight loss. […]
Statistical analysis was performed using GraphPad Prism. Differences among groups were evaluated by two-way ANOVA, with a 95% confidence interval.

Setting [3] is: human whole blood, inhibition of VCAM binding to α4β7-negative Th memory cells, FACS, read-out: VCAM FACS α4+β7− Th mem.

T1 sequence (P13612 34-1032): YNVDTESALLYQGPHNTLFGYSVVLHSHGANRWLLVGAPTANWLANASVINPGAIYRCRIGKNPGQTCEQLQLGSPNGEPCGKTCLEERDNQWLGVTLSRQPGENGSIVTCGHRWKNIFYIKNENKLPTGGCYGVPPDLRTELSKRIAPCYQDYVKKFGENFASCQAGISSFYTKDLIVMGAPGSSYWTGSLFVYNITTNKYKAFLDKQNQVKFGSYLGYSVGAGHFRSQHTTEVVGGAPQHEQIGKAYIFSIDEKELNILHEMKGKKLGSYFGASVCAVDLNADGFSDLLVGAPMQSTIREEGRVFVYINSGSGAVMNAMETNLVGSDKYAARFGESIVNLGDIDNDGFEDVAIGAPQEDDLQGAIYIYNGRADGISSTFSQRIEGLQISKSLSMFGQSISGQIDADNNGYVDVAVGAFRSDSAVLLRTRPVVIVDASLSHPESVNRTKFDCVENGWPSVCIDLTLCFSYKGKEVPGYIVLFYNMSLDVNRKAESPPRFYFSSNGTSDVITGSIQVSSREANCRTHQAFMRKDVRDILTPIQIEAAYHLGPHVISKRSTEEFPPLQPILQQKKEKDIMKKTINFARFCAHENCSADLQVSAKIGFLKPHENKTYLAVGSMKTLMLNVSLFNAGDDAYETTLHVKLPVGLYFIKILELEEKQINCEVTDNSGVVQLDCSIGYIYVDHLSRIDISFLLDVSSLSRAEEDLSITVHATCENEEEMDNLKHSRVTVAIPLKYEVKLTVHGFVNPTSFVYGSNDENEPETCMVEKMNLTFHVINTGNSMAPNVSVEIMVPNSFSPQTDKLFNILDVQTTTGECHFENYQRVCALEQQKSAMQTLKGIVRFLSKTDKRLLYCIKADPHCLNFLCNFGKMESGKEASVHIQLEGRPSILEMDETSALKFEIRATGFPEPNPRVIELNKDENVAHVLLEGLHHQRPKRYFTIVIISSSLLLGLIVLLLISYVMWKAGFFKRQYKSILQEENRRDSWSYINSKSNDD
T1 sequence (P05556 21-798): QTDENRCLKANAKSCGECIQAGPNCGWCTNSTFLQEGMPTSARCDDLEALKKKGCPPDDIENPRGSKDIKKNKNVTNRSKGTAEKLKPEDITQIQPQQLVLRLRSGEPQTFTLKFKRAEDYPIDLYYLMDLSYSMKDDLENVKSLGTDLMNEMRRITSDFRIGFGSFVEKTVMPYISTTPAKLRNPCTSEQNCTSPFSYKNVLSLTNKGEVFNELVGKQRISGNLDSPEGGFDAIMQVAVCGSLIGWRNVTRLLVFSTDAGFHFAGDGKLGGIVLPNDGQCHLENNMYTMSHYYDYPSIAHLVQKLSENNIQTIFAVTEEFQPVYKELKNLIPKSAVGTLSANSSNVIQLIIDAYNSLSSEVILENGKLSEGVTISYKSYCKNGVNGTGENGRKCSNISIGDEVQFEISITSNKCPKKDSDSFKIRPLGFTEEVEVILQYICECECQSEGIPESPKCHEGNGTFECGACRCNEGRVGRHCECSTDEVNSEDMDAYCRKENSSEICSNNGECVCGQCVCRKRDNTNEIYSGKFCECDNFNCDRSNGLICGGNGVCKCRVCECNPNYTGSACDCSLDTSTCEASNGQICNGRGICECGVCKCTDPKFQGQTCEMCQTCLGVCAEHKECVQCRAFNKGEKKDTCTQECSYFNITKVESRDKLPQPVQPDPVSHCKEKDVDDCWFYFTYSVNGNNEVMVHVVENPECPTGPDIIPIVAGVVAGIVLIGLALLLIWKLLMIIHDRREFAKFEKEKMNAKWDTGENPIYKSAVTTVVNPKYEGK

Consider `CC(C)C[C@@H]1NC(=O)c2ccc(-c3ccc(N4CCN(CCC(=O)N5CCN(c6ccc(-c7ccc8cc7CNC(=O)[C@@H]7CCCN7[C@H](C(=O)NC(C)(C)C)[C@H](C)NC(=O)[C@H]([C@@H](C)O)NC(=O)[C@H](CC(=O)O)NC(=O)[C@H](CC(C)C)NC8=O)cc6)CC5)CC4)cc3)c(c2)CNC(=O)[C@@H]2CCCN2[C@H](C(=O)NC(C)(C)C)[C@H](C)NC(=O)[C@H]([C@@H](C)O)NC(=O)[C@H](CC(=O)O)NC1=O` [Compound 482], for which the IC50 in experiment [1] (setting [3]) was not below 4 µM.

As for `CC(C)C[C@@H]1NC(=O)c2ccc(-c3ccc(N4CCN(C(=O)CCOCCOCCOCCOCCOCCOCCOCCOCCOCCOCCC(=O)N5CCN(c6ccc(-c7ccc8cc7CNC(=O)[C@@H]7CCCN7[C@H](C(=O)NC(C)(C)C)[C@H](C)NC(=O)[C@H]([C@@H](C)O)NC(=O)[C@H](CC(=O)O)NC(=O)[C@H](CC(C)C)NC8=O)cc6)CC5)CC4)cc3)c(c2)CNC(=O)[C@@H]2CCCN2[C@H](C(=O)NC(C)(C)C)[C@H](C)NC(=O)[C@H]([C@@H](C)O)NC(=O)[C@H](CC(=O)O)NC1=O` [Compound 511], in experiment [1] (setting [3]), the IC50 was determined as 20 µM.

Regarding `CC(C)C[C@@H]1NC(=O)c2ccc(-c3ccc(N4CCN(C(=O)c5ccccc5-c5ccccc5C(=O)N5CCN(c6ccc(-c7ccc8cc7CNC(=O)[C@@H]7CCCN7[C@H](C(=O)NC(C)(C)C)[C@H](C)NC(=O)[C@H]([C@@H](C)O)NC(=O)[C@H](CC(=O)O)NC(=O)[C@H](CC(C)C)NC8=O)cc6)CC5)CC4)cc3)c(c2)CNC(=O)[C@@H]2CCCN2[C@H](C(=O)NC(C)(C)C)[C@H](C)NC(=O)[C@H]([C@@H](C)O)NC(=O)[C@H](CC(=O)O)NC1=O` [Compound 517], the “reduction of the number of α4β7+ positive lymphocytes in mesenteric lymph nodes” value in experiment [2] (80 mg/kg orally daily days 6 to 9) came to 60%. Also, the “reduction in α4β7+ T helper memory lymphocytes in mesenteric lymph nodes, dose dependence” value in experiment [2] (FIG. 9) is “dose-dependent reduction”. Also, in experiment [1] (setting [3]), the IC50 is 0.607 µM.

On to `CC(C)C[C@@H]1NC(=O)C[C@H](CCCCN)N(C)C(=O)[C@H](CCCCNC(=O)CCCCCCCCC(=O)NCCCC[C@@H]2NC(=O)[C@@H]3CCCN3[C@H](C(=O)NC(C)(C)C)[C@H](C)NC(=O)[C@H]([C@@H](C)O)NC(=O)[C@H](CC(=O)O)NC(=O)[C@H](CC(C)C)NC(=O)C[C@H](CCCCN)N(C)C2=O)NC(=O)[C@@H]2CCCN2[C@H](C(=O)NC(C)(C)C)[C@H](C)NC(=O)[C@H]([C@@H](C)O)NC(=O)[C@H](CC(=O)O)NC1=O` [Compound 530], for which the IC50 is more than 4 µM in experiment [1] (setting [3]) and not below 0.6 µM in experiment [1] (whole blood from a single donor, FIG. 11, up to 4000 nM, read-out: IC50, VCAM binding).

These data come from patent publication US11713338B2, “Cyclic peptides multimers targeting α-4-β-7 integrin” (priority 2016, dated 2023).
